From PubChem BioAssay (NCI)
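Method: 48-hour compound exposure of cells in 96-well plates, five concentrations, linear interpolation of endpoints. The concentration for full growth arrest is given as TGI.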

Key:
Test in all cases: inhibition of tumour cell growth, NCI panel, 48 h
MALME-3M melanoma = test system: MALME-3M melanoma
TK-10 renal = test system: TK-10 renal
SK-MEL-5 melanoma = test system: SK-MEL-5 melanoma
XF 498 CNS = test system: XF 498 CNS
786-0 renal = test system: 786-0 renal
HT29 colon = test system: HT29 colon
NCI-H23 lung = test system: NCI-H23 lung
KM12 colon = test system: KM12 colon
DMS 114 small cell lung = test system: DMS 114 small cell lung
SW-620 colon = test system: SW-620 colon
RXF 393 renal = test system: RXF 393 renal
SK-MEL-2 melanoma = test system: SK-MEL-2 melanoma
HOP-62 NSCLC = test system: HOP-62 NSCLC
SNB-78 CNS = test system: SNB-78 CNS
UACC-62 melanoma = test system: UACC-62 melanoma
IGROV1 ovarian = test system: IGROV1 ovarian
OVCAR-3 ovarian = test system: OVCAR-3 ovarian
SF-268 CNS = test system: SF-268 CNS
RXF-631 renal = test system: RXF-631 renal
HCT-15 colon = test system: HCT-15 colon
SK-MEL-28 melanoma = test system: SK-MEL-28 melanoma
EKVX NSCLC = test system: EKVX NSCLC
DMS 273 small cell lung = test system: DMS 273 small cell lung
MOLT-4 leukemia = test system: MOLT-4 leukemia
COLO 205 colon = test system: COLO 205 colon
LOX IMVI melanoma = test system: LOX IMVI melanoma
A498 renal = test system: A498 renal
ACHN renal = test system: ACHN renal
SR leukemia = test system: SR leukemia
NCI-H460 lung = test system: NCI-H460 lung
UO-31 renal = test system: UO-31 renal
SNB-75 CNS = test system: SNB-75 CNS
M19-MEL melanoma = test system: M19-MEL melanoma
NCI-H226 lung = test system: NCI-H226 lung
M14 melanoma = test system: M14 melanoma
RPMI-8226 leukemia = test system: RPMI-8226 leukemia
UACC-257 melanoma = test system: UACC-257 melanoma
SK-OV-3 ovarian = test system: SK-OV-3 ovarian
NCI-H522 lung = test system: NCI-H522 lung
HCC-2998 colon = test system: HCC-2998 colon
OVCAR-5 ovarian = test system: OVCAR-5 ovarian
K-562 leukemia = test system: K-562 leukemia
SF-295 CNS = test system: SF-295 CNS
SNB-19 CNS = test system: SNB-19 CNS
U251 CNS = test system: U251 CNS
HL-60(TB) leukemia = test system: HL-60(TB) leukemia
KM20L2 colon = test system: KM20L2 colon
HOP-92 NSCLC = test system: HOP-92 NSCLC
SN12C renal = test system: SN12C renal
CCRF-CEM leukemia = test system: CCRF-CEM leukemia
A549 NSCLC = test system: A549 NSCLC
CAKI-1 renal = test system: CAKI-1 renal
DLD-1 colon = test system: DLD-1 colon
OVCAR-8 ovarian = test system: OVCAR-8 ovarian
HCT-116 colon = test system: HCT-116 colon
HOP-18 NSCLC = test system: HOP-18 NSCLC
LXFL 529 NSCLC = test system: LXFL 529 NSCLC
SF-539 CNS = test system: SF-539 CNS
OVCAR-4 ovarian = test system: OVCAR-4 ovarian

CCCCNC(=O)NNC(=O)c1cc(/C=C/c2cccc([N+](=O)[O-])c2)ncn1
TGI (MALME-3M melanoma): > 100 µM
TGI (TK-10 renal): > 100 µM
TGI (SK-MEL-5 melanoma): > 100 µM
TGI (XF 498 CNS): > 100 µM
TGI (786-0 renal): > 100 µM
TGI (HT29 colon): > 100 µM
TGI (NCI-H23 lung): > 100 µM
TGI (KM12 colon): > 100 µM
TGI (DMS 114 small cell lung): > 100 µM
TGI (SW-620 colon): 33.7 µM
TGI (RXF 393 renal): > 100 µM
TGI (SK-MEL-2 melanoma): > 100 µM
TGI (HOP-62 NSCLC): > 100 µM
TGI (SNB-78 CNS): > 100 µM
TGI (UACC-62 melanoma): > 100 µM
TGI (IGROV1 ovarian): > 100 µM
TGI (OVCAR-3 ovarian): > 100 µM
TGI (SF-268 CNS): > 100 µM
TGI (RXF-631 renal): > 100 µM
TGI (HCT-15 colon): > 100 µM
TGI (SK-MEL-28 melanoma): > 100 µM
TGI (EKVX NSCLC): > 100 µM
TGI (DMS 273 small cell lung): > 100 µM
TGI (MOLT-4 leukemia): > 100 µM
TGI (COLO 205 colon): > 100 µM
TGI (LOX IMVI melanoma): > 100 µM
TGI (A498 renal): > 100 µM
TGI (ACHN renal): > 100 µM
TGI (SR leukemia): > 100 µM
TGI (NCI-H460 lung): > 100 µM
TGI (UO-31 renal): > 100 µM
TGI (SNB-75 CNS): > 100 µM
TGI (M19-MEL melanoma): > 100 µM
TGI (NCI-H226 lung): > 100 µM
TGI (M14 melanoma): > 100 µM
TGI (RPMI-8226 leukemia): 59.8 µM
TGI (UACC-257 melanoma): > 100 µM
TGI (SK-OV-3 ovarian): > 100 µM
TGI (NCI-H522 lung): > 100 µM
TGI (HCC-2998 colon): > 100 µM
TGI (OVCAR-5 ovarian): > 100 µM
TGI (K-562 leukemia): > 100 µM
TGI (SF-295 CNS): > 100 µM
TGI (SNB-19 CNS): > 100 µM
TGI (U251 CNS): 44.8 µM
TGI (HL-60(TB) leukemia): > 100 µM
TGI (KM20L2 colon): > 100 µM
TGI (HOP-92 NSCLC): > 100 µM
TGI (SN12C renal): > 100 µM
TGI (CCRF-CEM leukemia): > 100 µM
TGI (A549 NSCLC): > 100 µM
TGI (CAKI-1 renal): > 100 µM
TGI (DLD-1 colon): > 100 µM
TGI (OVCAR-8 ovarian): > 100 µM
TGI (HCT-116 colon): > 100 µM
TGI (HOP-18 NSCLC): > 100 µM

Cn1c2c(c3ccccc31)CCN(CCCN1CCN(c3cccc(Cl)c3)CC1)C2=O
TGI (TK-10 renal): > 100 µM
TGI (SK-MEL-5 melanoma): 36.1 µM
TGI (XF 498 CNS): 27.6 µM
TGI (786-0 renal): 34.5 µM
TGI (HT29 colon): 29 µM
TGI (NCI-H23 lung): 66.9 µM
TGI (DMS 114 small cell lung): 44.4 µM
TGI (SW-620 colon): > 100 µM
TGI (RXF 393 renal): 49.7 µM
TGI (HOP-62 NSCLC): 41.1 µM
TGI (UACC-62 melanoma): 39.2 µM
TGI (LXFL 529 NSCLC): 32.2 µM
TGI (IGROV1 ovarian): 66.1 µM
TGI (SF-539 CNS): 32.1 µM
TGI (SF-268 CNS): > 100 µM
TGI (RXF-631 renal): 90.7 µM
TGI (HCT-15 colon): > 100 µM
TGI (SK-MEL-28 melanoma): 34.3 µM
TGI (EKVX NSCLC): > 100 µM
TGI (DMS 273 small cell lung): 84.5 µM
TGI (MOLT-4 leukemia): 55.3 µM
TGI (COLO 205 colon): 31.8 µM
TGI (LOX IMVI melanoma): 50.8 µM
TGI (A498 renal): 10 µM
TGI (ACHN renal): 96.8 µM
TGI (NCI-H460 lung): 29.9 µM
TGI (UO-31 renal): 32.6 µM
TGI (M19-MEL melanoma): 42.5 µM
TGI (M14 melanoma): 40.1 µM
TGI (RPMI-8226 leukemia): 35 µM
TGI (SK-OV-3 ovarian): > 100 µM
TGI (NCI-H522 lung): 79.9 µM
TGI (K-562 leukemia): 35.8 µM
TGI (SNB-19 CNS): 86.2 µM
TGI (U251 CNS): 12.7 µM
TGI (HL-60(TB) leukemia): 24.2 µM
TGI (KM20L2 colon): 11.1 µM
TGI (HOP-92 NSCLC): 18.7 µM
TGI (SN12C renal): 62.4 µM
TGI (CCRF-CEM leukemia): > 100 µM
TGI (A549 NSCLC): > 100 µM
TGI (CAKI-1 renal): 38.4 µM
TGI (DLD-1 colon): > 100 µM
TGI (OVCAR-8 ovarian): 77.4 µM
TGI (HCT-116 colon): 24.8 µM
TGI (HOP-18 NSCLC): 83.1 µM

C=CCN=C1N=C(C)C(C(=O)OCC)S1 (stereo not given)
TGI (MALME-3M melanoma): > 100 µM
TGI (TK-10 renal): > 100 µM
TGI (SK-MEL-5 melanoma): > 100 µM
TGI (XF 498 CNS): > 100 µM
TGI (786-0 renal): > 100 µM
TGI (HT29 colon): > 100 µM
TGI (NCI-H23 lung): > 100 µM
TGI (KM12 colon): > 100 µM
TGI (DMS 114 small cell lung): > 100 µM
TGI (SW-620 colon): > 100 µM
TGI (RXF 393 renal): > 100 µM
TGI (SK-MEL-2 melanoma): > 100 µM
TGI (HOP-62 NSCLC): > 100 µM
TGI (SNB-78 CNS): > 100 µM
TGI (UACC-62 melanoma): > 100 µM
TGI (LXFL 529 NSCLC): > 100 µM
TGI (IGROV1 ovarian): > 100 µM
TGI (OVCAR-3 ovarian): > 100 µM
TGI (SF-539 CNS): > 100 µM
TGI (SF-268 CNS): > 100 µM
TGI (RXF-631 renal): > 100 µM
TGI (HCT-15 colon): > 100 µM
TGI (SK-MEL-28 melanoma): > 100 µM
TGI (EKVX NSCLC): > 100 µM
TGI (DMS 273 small cell lung): > 100 µM
TGI (MOLT-4 leukemia): > 100 µM
TGI (COLO 205 colon): > 100 µM
TGI (LOX IMVI melanoma): > 100 µM
TGI (A498 renal): > 100 µM
TGI (ACHN renal): > 100 µM
TGI (SR leukemia): > 100 µM
TGI (NCI-H460 lung): > 100 µM
TGI (UO-31 renal): > 100 µM
TGI (OVCAR-4 ovarian): > 100 µM
TGI (SNB-75 CNS): > 100 µM
TGI (NCI-H226 lung): > 100 µM
TGI (M14 melanoma): > 100 µM
TGI (RPMI-8226 leukemia): > 100 µM
TGI (UACC-257 melanoma): > 100 µM
TGI (SK-OV-3 ovarian): > 100 µM
TGI (NCI-H522 lung): > 100 µM
TGI (HCC-2998 colon): > 100 µM
TGI (OVCAR-5 ovarian): > 100 µM
TGI (K-562 leukemia): > 100 µM
TGI (SF-295 CNS): > 100 µM
TGI (SNB-19 CNS): > 100 µM
TGI (U251 CNS): > 100 µM
TGI (HL-60(TB) leukemia): > 100 µM
TGI (KM20L2 colon): > 100 µM
TGI (HOP-92 NSCLC): > 100 µM
TGI (SN12C renal): > 100 µM
TGI (CCRF-CEM leukemia): > 100 µM
TGI (A549 NSCLC): > 100 µM
TGI (CAKI-1 renal): > 100 µM
TGI (DLD-1 colon): > 100 µM
TGI (OVCAR-8 ovarian): > 100 µM
TGI (HCT-116 colon): > 100 µM
TGI (HOP-18 NSCLC): > 100 µM
